Data reported in patent US20200147055A1, “COMPOSITIONS AND METHODS FOR TREATING DRY EYE SYNDROME DELIVERING ANTIBIOTIC MACROLIDE” (Eximore Ltd., priority 2017, published 2020).

Assay: In vitro release of Tacrolimus from plug samples into releasing medium buffer (PBS + BAK + Triton) at 37 degrees Celsius, HPLC-MS-MS
Assay type: physicochemical
Conditions: implants contain approximately 900 micrograms of TAC
Procedure: In an example of an embodiment of the composition of the present invention, plug samples containing Tacrolimus were prepared. Samples were incubated at 37 degrees Celsius for varying times to determine time effect on Tacrolimus release profile from the sample into a polar solution (PBS).
The solution included the following: 0.01M PBS, 0.005% BAK, and 0.1% TRITON X-100.
Composite weight 3 mg with 30% Tacrolimus.
Development of HPLC-MS-MS Method for Tacrolimus (TCM)
Table 2 provides a list of samples used in the sustained release profile and cumulative sustained release profile illustrated in FIGS. 4 and 5, respectively. Samples 19-1 to 19-8 are Type A, COM TAC 1. Samples 19-9 to 19-16 are Type A, COM TAC 2. Samples 19-17 to 19-24 are Type B, EPO TAC 1. Samples 19-25 to 19-32 are Type B, EPO TAC 2.

TAC average release in vitro (first 3 months): about 1.7 μg/day
TAC release in vitro (first month): 2 µg/day
TAC steady state release in vitro (following 2-3 months): 1.5 µg/day
estimated duration of release in vitro: 6 months
Structure (SMILES): C=CC[C@@H]1/C=C(\C)C[C@H](C)C[C@H](OC)[C@H]2O[C@@](O)(C(=O)C(=O)N3CCCC[C@H]3C(=O)O[C@H](/C(C)=C/[C@@H]3CC[C@@H](O)[C@H](OC)C3)[C@H](C)[C@@H](O)CC1=O)[C@H](C)C[C@@H]2OC [TAC, (3S,4R,5S,8R,9E,12S,14S,15R,16S,18R,19R,26aS)-5,19-dihydroxy-3-{(1E)-1-[(1R,3R,4R)-4-hydroxy-3-methoxycyclohexyl]prop-1-en-2-yl}-14,16-dimethoxy-4,10,12,18-tetramethyl-8-(prop-2-en-1-yl)-5,6,8,11,12,13,14,15,16,17,18,19,24,25,26,26a-hexadecahydro-3H-15,19-epoxypyrido[2,1-c][1,4]oxazacyclotricosine-1,7,20,21(4H,23H)-tetrone]
